From patent publication US9598396B2, “Tetrahydrophenanthridinones and tetrahydrocyclopentaquinolinones as PARP and tubulin polymerization inhibitors” (Janssen Pharmaceutica NV, priority 2008, dated 2017)

What was measured:
TANK-2 enzyme = TANK-2 enzyme (Homo sapiens (Human), UniProt Q9H2K2); assay: In vitro Scintillation Proximity Assay (SPA) for TANK-2 inhibitory activity; format: biochemical; conditions: auto-poly(ADP-ribosyl)ation, [3H]-NAD+, Ni flash plates (96 or 384 well)
Protocol: C.2.In Vitro Scintillation Proximity Assay (SPA) for TANK-2 Inhibitory Activity
Compounds of the present invention were tested in an in vitro assay based on SPA technology with Ni Flash plates (96 or 384 well).
In principle, the assay relies upon SPA technology for the detection of auto-poly(ADP-ribosyl)ation of TANK-2 protein using [^3H]-nicotinamide adenine dinucleotide ([^3H]-NAD^+) as ADP-ribosyl donor.
A stock solution of 100 nM [^3H]-NAD^+/NAD (0.1 mCi/ml, supplier: Perkin Elmer) and 25 μM NAD (Sigma) was made in assay buffer (60 mM Tris/HCl, pH 7.4; 0.9 mM DTT; 6 mM MgCl2). The TANK-2 enzyme was produced as described in EP1238063. 60 μl of assay buffer, together with 1 μl of compound in DMSO, 20 μl of [^3H]-NAD^+/NAD and 20 μl of TANK-2 enzyme (final concentration 8 μg/ml) was added per well into a 96-well Ni-coated flash plate (Perkin Elmer). After incubation of the mixture for 120 minutes at room temperature, the reaction was terminated by adding 60 μl of stopsolution (42.6 mg NAD in 6 ml H2O). The plates were covered with a plate sealer and placed in a TopCountNXT™ (Packard) for scintillation counting. Values were expressed as counts per minute (cpm). For each experiment, controls (containing TANK-2 enzyme and DMSO without compound), a blank incubation (containing DMSO but no TANK-2 enzyme or compound) and samples (containing TANK-2 enzyme and compound dissolved in DMSO) were run in parallel. All compounds tested were dissolved and eventually further diluted in DMSO. In first instance, compounds were tested at a concentration of 10^−5M. […] In each test, the blank value was subtracted from both the control and the sample values. The control sample represented maximal TANK-2 enzyme activity. For each sample, the amount of cpm was expressed as a percentage of the mean cpm value of the controls. […] Herein the effects of test compounds are expressed as pIC50 (the negative log value of the IC50-value). As reference compounds, 3-aminobenzamide and 4-amino-1,8-naphtalimide were included to validate the SPA assay. Herein the assay was described using 96-well plates. In the assay using 384-well plates the same final concentrations were used and volumes were adapted.

[1] = test system: human prostate cancer PC3 cells; assay: Eb1 Comet (microtubule disruption) assay; format: cell-based; conditions: 1 hour treatment, LAC = concentration where Eb1 foci absent in at least 50% of treated cells
Text: Example C.6 Eb1 Comet (Microtubule Disruption) Assay
The Eb1 Comet assay relies on the detection of the Eb1 protein at the plus end of polymerizing microtubules (Mimori-Kiyosue, 2000) using indirect immunofluorescence. Disruption of microtubule dynamics through de-polymerization or stabilization results in a de-localization of Eb1 from the growing microtubule ends and this is visualized by the disappearance of Eb1 containing cytoplasmic foci.
Briefly, human prostate cancer PC3 cells obtained from the American Type Culture Collection were grown in 96-well plates (Greiner, cat. no. 655090) in HAM's F12 medium as recommended by the provider (ATCC). The cells were treated for 1 hour at 37° C. with compounds dissolved in DMSO (0.6% final DMSO concentration). The culture medium was then removed by aspiration and the cells were fixed by adding cold methanol (−20 C). After a 15 minutes incubation at −20° C., the cells were washed twice with DPBS (Gibco) containing 0.5% Triton X-100. Mouse Eb1 antibody (BD Transduction Laboratories, cat. no. 610534) was added to the cells (1/250 dilution in DPBS containing 1% BSA) and incubated overnight at room temperature. The antibody was subsequently removed and the cells washed twice with DPBS, 0.5% Triton X-100. Secondary goat anti-mouse antibody conjugated to Alexa 488 fluorescent dye (Molecular Probes) was added at a 1/500 dilution in DPBS, 1% BSA and incubated for 1 hour at 37° C. The cells were washed twice with DPBS, 0.5% Triton X-100 and then DPBS containing 0.5% Triton X-100 and 1/5000 Hoechst 33342 (Molecular Probes) was added. Microscopy based Eb1 foci visualization was carried out using an IN Cell Analyser 1000 (Amersham Biosciences) using a 20× objective. Compound dependent microtubule disruption was visually determined by the disappearance in Eb1 foci. The lowest active concentration (LAC) was determined as the concentration where Eb1 foci were absent in at least 50% of the treated cells. Herein the effects of tested compounds are expressed as pLAC (the negative log value of the LAC value) (see Table 3).

TANK-2 enzyme, sequence (Q9H2K2 whole entry): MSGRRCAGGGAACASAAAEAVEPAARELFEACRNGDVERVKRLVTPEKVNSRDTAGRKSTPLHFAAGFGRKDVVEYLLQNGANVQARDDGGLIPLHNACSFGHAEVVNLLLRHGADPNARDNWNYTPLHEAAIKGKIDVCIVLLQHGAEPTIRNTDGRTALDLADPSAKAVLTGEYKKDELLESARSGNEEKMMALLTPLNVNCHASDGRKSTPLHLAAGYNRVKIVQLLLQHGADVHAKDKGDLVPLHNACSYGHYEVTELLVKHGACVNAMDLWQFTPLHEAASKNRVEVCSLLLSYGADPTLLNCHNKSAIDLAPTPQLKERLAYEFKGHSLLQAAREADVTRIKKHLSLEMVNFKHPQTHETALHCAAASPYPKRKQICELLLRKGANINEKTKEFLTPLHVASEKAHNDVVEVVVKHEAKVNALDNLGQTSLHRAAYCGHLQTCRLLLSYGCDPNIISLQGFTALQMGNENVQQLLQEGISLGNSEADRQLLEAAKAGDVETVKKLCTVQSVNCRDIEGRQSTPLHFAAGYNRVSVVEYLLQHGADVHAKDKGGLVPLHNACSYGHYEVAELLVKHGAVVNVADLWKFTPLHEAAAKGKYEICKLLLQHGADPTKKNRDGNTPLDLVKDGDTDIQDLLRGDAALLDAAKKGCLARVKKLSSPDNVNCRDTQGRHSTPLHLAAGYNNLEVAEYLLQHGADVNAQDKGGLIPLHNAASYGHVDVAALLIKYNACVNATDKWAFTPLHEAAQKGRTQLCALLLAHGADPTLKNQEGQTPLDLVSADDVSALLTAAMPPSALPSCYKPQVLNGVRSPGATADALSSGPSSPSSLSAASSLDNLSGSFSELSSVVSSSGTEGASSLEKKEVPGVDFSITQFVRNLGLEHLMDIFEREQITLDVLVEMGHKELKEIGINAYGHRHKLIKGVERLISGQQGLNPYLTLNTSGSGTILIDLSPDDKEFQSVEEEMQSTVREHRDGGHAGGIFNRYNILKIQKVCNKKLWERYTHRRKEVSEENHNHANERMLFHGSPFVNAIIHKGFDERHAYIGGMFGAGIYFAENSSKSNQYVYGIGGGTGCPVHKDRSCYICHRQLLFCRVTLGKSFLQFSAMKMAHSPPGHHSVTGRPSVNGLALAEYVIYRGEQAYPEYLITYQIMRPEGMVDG

| in vitro SPA assay TANK-2 pIC50 (TANK-2 enzyme) | SMILES | Cellular assay Eb1 pLAC [1] |
| --- | --- | --- |
| 7.85 | CC(C#N)(Cc1ccccc1)c1ccc2c3c(c(=O)[nH]c2c1)CCCC3 (centres unmarked) [Co. No. 1] | – |
| 7.76 | CC(C#N)(Cc1cccc(C#N)c1)c1ccc2c3c(c(=O)[nH]c2c1)CCCC3 (centres unmarked) [Co. No. 4] | – |
| 7.71 | CC(C#N)(Cc1cccc(F)c1)c1ccc2c3c(c(=O)[nH]c2c1)CCCC3 (centres unmarked) [Co. No. 5] | 7 |
| 8.02 | CC(C#N)(Cc1cccc(C#N)n1)c1ccc2c3c(c(=O)[nH]c2c1)CCCC3 (centres unmarked) [Co. No. 7] | 7.5 |
| 7.28 | CC(C#N)(Cc1cccc(Cl)c1)c1ccc2c3c(c(=O)[nH]c2c1)CCCC3 (centres unmarked) [Co. No. 8] | – |
| 7.28 | CC(C#N)(CCOc1ccc(C#N)cc1)c1ccc2c3c(c(=O)[nH]c2c1)CCCC3 (centres unmarked) [Co. No. 17] | – |
